One test relates to Mus musculus. Kind of test: Effective dose required for analgesic potency in the hotplate procedure after sc injection into mice. In kind it is functional.
The target in test [1] is Opioid receptors; mu/kappa/delta (Homo sapiens, UniProt P41145+P41143+P35372). Kind of test: Ability to displace [3H]etorphine from Opioid receptors in guinea pig brain. Set-up: species or system Cavia porcellus.

A word on the ED50: it is the dose that gives a 50% effect, or the effect in half of the subjects. A higher ED50 goes with weaker potency. One may read the IC50 as the concentration needed to halve the response being measured. `CCC(=O)OC1(c2ccccc2)CCN(C)C(C)C1` (racemic) came in with an ED50 with Mus musculus of 0.52 mg/kg. The compound also had an IC50 in test [1] of 2000 nM. `CN1CC[C@]23c4c5ccc(O)c4O[C@H]2[C@@H](O)C=C[C@H]3[C@H]1C5` [MORPHINE] showed an ED50 with Mus musculus of 1.2 mg/kg. On the same count and under the same terms, then `CCOC(=O)C1(c2ccccc2)CCN(C)CC1` [MEPERIDINE], with 1.3 mg/kg. In the test with Mus musculus, `CCC(=O)O[C@@]1(c2ccccc2)CCN(C)C(C)C1` (single isomer, unassigned; (+)) registered a median effective dose (ED50) of 5.5 mg/kg. The IC50 in test [1] is 11000 nM. The like results for `CCC(=O)O[C@]1(c2ccccc2)CCN(C)[C@@H](C)C1` were, in that order, 0.53 mg/kg and 1200 nM.

The record behind these values is ChEMBL document CHEMBL1121937, “Stereochemical studies on medicinal agents. 25. Absolute configuration and analgetic potency of beta-1,2-dimethyl-2-phenyl-4-(propionyloxy)piperidine enantiomers” (J Med Chem, 1982).
